Laboratory results: ChEMBL document CHEMBL2380207, “Recent advances in natural products from plants for treatment of liver diseases” (Eur J Med Chem, 2013)

Experiment: Inhibition of Hepatitis C virus protease
Set-up: species or system Hepacivirus hominis

- IC50: 35 µM
Compound: CC1Cc2cccc(O)c2C(=O)O1 (stereo unspecified) [MELLEIN]
